Laboratory results reported in the NIST ThermoML archive (doi:10.1016/j.jct.2011.01.006).
Several values for one entry are separate records, joined by “and”; a condition that tells them apart may be missing. Identical values can stand only once.

Legend:
[1] = Crystal, Calculated from knudsen effusion weight loss
[2] = molar enthalpy of vaporization or sublimation; settings: 298.15 K; Crystal; Ebulliometric method (Recirculating still)

CC(=O)c1ccc([N+](=O)[O-])cc1 [1-(4-nitrophenyl)ethanone]
[1]
Settings	vapor or sublimation pressure
302.19 K	9.1e-05 kPa and 9e-05 kPa
304.15 K	0.000121 kPa and 0.000119 kPa and 0.000118 kPa
306.07 K	0.000149 kPa and 0.000156 kPa and 0.000151 kPa
306.19 K	0.000148 kPa and 0.000151 kPa and 0.000147 kPa
308.16 K	0.000192 kPa and 0.000193 kPa and 0.00019 kPa
310.07 K	0.000239 kPa and 0.000235 kPa and 0.000243 kPa
312.19 K	0.000329 kPa and 0.000306 kPa and 0.000304 kPa
314.16 K	0.000402 kPa and 0.000397 kPa and 0.000392 kPa
316.07 K	0.000494 kPa and 0.000502 kPa and 0.000503 kPa
318.18 K	0.000657 kPa and 0.000619 kPa and 0.000617 kPa
320.13 K	0.000795 kPa and 0.000792 kPa and 0.00078 kPa
322.06 K	0.00096 kPa and 0.000984 kPa and 0.000991 kPa

Settings	molar enthalpy [kcal/mol]
[2]	23.2

CC(=O)c1cccc([N+](=O)[O-])c1 [1-(3-nitrophenyl)ethanone]
[1]
Settings	vapor or sublimation pressure
300.2 K	7e-05 kPa and 6.8e-05 kPa and 6.6e-05 kPa
302.18 K	8.8e-05 kPa and 8.9e-05 kPa
304.08 K	0.000113 kPa and 0.000115 kPa
306.2 K	0.000149 kPa and 0.000148 kPa and 0.000152 kPa
308.16 K	0.000192 kPa and 0.000191 kPa and 0.000189 kPa
310.08 K	0.000238 kPa and 0.000241 kPa and 0.000249 kPa
312.19 K	0.000321 kPa and 0.000305 kPa and 0.000302 kPa
314.15 K	0.000404 kPa and 0.000392 kPa and 0.000387 kPa
316.08 K	0.000499 kPa and 0.000491 kPa and 0.00049 kPa
318.18 K	0.000669 kPa and 0.000628 kPa and 0.000621 kPa
320.15 K	0.000817 kPa and 0.000801 kPa and 0.00079 kPa
322.08 K	0.001007 kPa and 0.001 kPa and 0.000997 kPa

Settings	molar enthalpy [kcal/mol]
[2]	23.69
